This assay deals with Wnt stimulated TCF transcriptional activity, HEK293-TS 112 TCF reporter cell line. The assay can be described thus: Tankyrase 1 Assay (Example 119): Wnt3A-stimulated TOPbrite TCF luciferase reporter. Format: cell-based. The settings on record: Compounds I-59 to I-144, procedure in Example 119 (0.5 ug/mL Wnt3A, 16 hours); read-out: TNKS1 (IC50). The protocol:
Inhibition of the Wnt stimulated TCF transcriptional activity by tankyrase inhibitors was determined utilizing a HEK293-TS 112 TCF reporter cell line. A Wnt-responsive luciferase reporter named TOPbrite was constructed by cloning the enhancer element of Super8xTOPFlash containing eight TCF/LEF binding sites into the pGL4.28 vector (Promega) upstream of the minimal promoter element, and selecting for hygromycin B resistance (50 μg/ml). Cells were seeded into 384-well plates in the presence of 0.5 ug/mL of Wnt3A at a density of 20,000 cells per well in 25 ul of F:12 DMEM media supplemented with 10% FBS and 2 mM Glutamax. Cells seeded without the addition of Wnt3A were used as background signal. Compounds of various concentrations were added to cells and incubated at 37 degrees with 5% CO2 for 16 hours. The assay was terminated with the addition of Promega Dual Glo kit per manufacturer's instructions. A ratio of TOPbrite Firefly Luciferase and SV40 Renillla Luciferase was calculated and the background from the neutral wells was subtracted yielding the final normalized measurement of TCF transcriptional activity. Compound IC50s were determined by four-parameter curve fitting using GeneData software.
Background: A reporter such as luciferase makes a cellular process visible.
In the case of `Cn1ncc2c(=O)[nH]c(N3CCN(c4c(F)cc(OCC(O)CO)cc4F)CC3)nc21` (centres unmarked) [Compound I-68, 6-[4-[4-(2 3-dihydroxypropoxy)-2 6-difluoro-phenyl]piperazin-1-yl]-1-methyl-5H-pyrazolo[3 4-d]pyrimidin-4-one], the IC50 (in general, the concentration needed to halve the response being measured) stood at 0.007 µM.
Turning to `Cn1ncc2c(=O)[nH]c(N3CCC(C(=O)N4CCCC4)CC3)nc21` [Compound I-129, 1-methyl-6-[4-(pyrrolidine-1-carbonyl)-1-piperidyl)-5H-pyrazolo[3 4-d]pyrimidin-4-one], the IC50 was determined as 0.274 µM.
As to `COCCOc1cc(F)c(C2(O)CCN(c3nc4c(cnn4C)c(=O)[nH]3)CC2)c(F)c1` [Compound I-83, 6-[4-[2 6-difluoro-4-(2-methoxyethoxy)phenyl]-4-hydroxy-1-piperidyl]-1-methyl-5H-pyrazolo[3 4-d]pyrimidin-4-one], the IC50 worked out at 0.0153 µM.
As to `Cn1ccc(C2(C)CCN(c3nc4c(cnn4C)c(=O)[nH]3)CC2)n1` [Compound I-90, 1-methyl-6-[4-methyl-4-(1-methylpyrazol-3-yl)-1-piperidyl]-5H-pyrazolo[3 4-d]pyrimidin-4-one], the IC50 turned out to be 0.0236 µM.
To `Cn1ncc2c(=O)[nH]c(N3CCN(C4CCCCC4)CC3)nc21` [Compound I-118, 6-(4-cyclohexylpiperazin-1-yl)-1-methyl-5H-pyrazolo[3 4-d]pyrimidin-4-one] belongs 0.122 µM.
On to `Cn1ncc2c(=O)[nH]c(N3CCN(c4c(F)cc(C(O)CO)cc4F)CC3)nc21` (centres unmarked) [Compound I-63, 6-[4-[4-(1 2-dihydroxyethyl)-2 6-difluoro-phenyl]piperazin-1-yl]-1-methyl-5H-pyrazolo[3 4-d]pyrimidin-4-one], for which the IC50 was determined as 0.0053 µM.
In the case of `Cn1ncc2c(=O)[nH]c(N3CCN(c4c(F)cc(CO)cc4F)CC3)nc21` [Compound I-79, 6-[4-[2 6-difluoro-4-(hydroxymethyl)phenyl]piperazin-1-yl]-1-methyl-5H-pyrazolo[3 4-d]pyrimidin-4-one], the IC50 amounted to 0.0133 µM.
For the compound `CC(C)[C@H](N)C(=O)OCCOc1cc(F)c(N2CCN(c3nc4c(cnn4C)c(=O)[nH]3)CC2)c(F)c1` [Compound I-61, 2-[3 5-difluoro-4-[4-(1-methyl-4-oxo-5H-pyrazolo[3 4-d]pyrimidin-6-yl)piperazin-1-yl]phenoxy]ethyl (2S)-2-amino-3-methyl-butanoate], the IC50 came to 0.0042 µM.
Take `Cn1ncc2c(=O)[nH]c(N3CCN(c4c(F)cc(O)cc4F)CC3)nc21` [Compound I-73, 6-[4-(2 6-difluoro-4-hydroxy-phenyl)piperazin-1-yl]-1-methyl-5H-pyrazolo[3 4-d]pyrimidin-4-one]: the IC50 worked out at 0.0088 µM.
Regarding `Cn1ncc2c(=O)[nH]c(N3CCN(CC4CCCCC4)CC3)nc21` [Compound I-110, 6-[4-(cyclohexylmethyl)piperazin-1-yl]-1-methyl-5H-pyrazolo[3 4-d]pyrimidin-4-one], the IC50 was 0.0809 µM.
With `Cn1ncc2c(=O)[nH]c(N3CCN(c4c(F)cc(CN5CCOCC5)cc4F)CC3)nc21` [Compound I-67, 6-[4-[2 6-difluoro-4-(morpholinomethyl)phenyl]piperazin-1-yl]-1-methyl-5H-pyrazolo[3 4-d]pyrimidin-4-one], the IC50 was 0.0069 µM.
On to `Cn1ncc2c(=O)[nH]c(N3CCC(Cc4ccccn4)CC3)nc21` [Compound I-117, 1-methyl-6-[4-(2-pyridylmethyl)-1-piperidyl]-5H-pyrazolo[3 4-d]pyrimidin-4-one], for which the IC50 came to 0.112 µM.
In the case of `Cn1cc(N2CCN(c3nc4c(cnn4C)c(=O)[nH]3)CC2)cn1` [Compound I-105, 1-methyl-6-[4-(1-methylpyrazol-4-yl)piperazin-1-yl]-5H-pyrazolo[3 4-d]pyrimidin-4-one], the IC50 turned out to be 0.0639 µM.
`Cn1ncc2c(=O)[nH]c(-c3ccc(S(=O)(=O)C4CCCCC4)cc3)nc21` [Compound I-125, 6-(4-cyclohexylsulfonylphenyl)-1-methyl-5H-pyrazolo[3 4-d]pyrimidin-4-one]: the half-maximal inhibitory concentration (IC50) is 0.178 µM.
`COCCOc1cc(F)c(N2CCN(c3nc4c(cnn4CCCO)c(=O)[nH]3)CC2)c(F)c1` [Compound I-95, 6-[4-[2 6-difluoro-4-(2-methoxyethoxy)phenyl]piperazin-1-yl]-1-(3-hydroxypropyl)-5H-pyrazolo[3 4-d]pyrimidin-4-one]: the IC50 is 0.027 µM.
For `Cn1ncc2c(=O)[nH]c(N3CCC(O)(c4ccc(F)cc4)CC3)nc21` [Compound I-93, 6-[4-(4-fluorophenyl)-4-hydroxy-1-piperidyl]-1-methyl-5H-pyrazolo[3 4-d]pyrimidin-4-one], the IC50 was determined as 0.0246 µM.
As for `Cn1ncc2c(=O)[nH]c(N3CCC(c4nc(-c5cnccn5)no4)CC3)nc21` [Compound I-106, 1-methyl-6-[4-(3-pyrazin-2-yl-1 2 4-oxadiazol-5-yl)-1-piperidyl]-5H-pyrazolo[3 4-d]pyrimidin-4-one], the IC50 is 0.0641 µM.
In the case of `CCn1ccc(C2(C)CCN(c3nc4c(cnn4C)c(=O)[nH]3)CC2)n1` [Compound I-92, 6-[4-(1-ethylpyrazol-3-yl)-4-methyl-1-piperidyl]-1-methyl-5H-pyrazolo[3 4-d]pyrimidin-4-one], the concentration for half-maximal inhibition (IC50) was 0.0245 µM.
In the case of `Cn1ncc2c(=O)[nH]c(-c3ccc(S(C)(=O)=O)cn3)nc21` [Compound I-139, 1-methyl-6-(5-methylsulfonyl-2-pyridyl)-5H-pyrazolo[3 4-d]pyrimidin-4-one], the IC50 was determined as 0.547 µM.
`COCCOc1cc(F)c(C2(C#N)CCN(c3nc4c(cnn4C)c(=O)[nH]3)CC2)c(F)c1` [Compound I-86, 4-[2 6-difluoro-4-(2-methoxyethoxy)phenyl]-1-(1-methyl-4-oxo-5H-pyrazolo[3 4-d]pyrimidin-6-yl)piperidine-4-carbonitrile]: the IC50 turned out to be 0.0185 µM.
To `Cn1ncc2c(=O)[nH]c(N3CCN(C4CCN(C(=O)OC(C)(C)C)CC4)CC3)nc21` [Compound I-131, tert-butyl 4-[4-(1-methyl-4-oxo-5H-pyrazolo[3 4-d]pyrimidin-6-yl)piperazin-1-yl]piperidine-1-carboxylate] belongs 0.317 µM.
On to `Cn1ncc2c(=O)[nH]c(N3CCN(C4CCOCC4)CC3)nc21` [Compound I-130, 1-methyl-6-(4-tetrahydropyran-4-ylpiperazin-1-yl)-5H-pyrazolo[3 4-d]pyrimidin-4-one], for which the IC50 was 0.315 µM.
In the case of `C[C@H](N)C(=O)OCCOc1cc(F)c(N2CCN(c3nc4c(cnn4C)c(=O)[nH]3)CC2)c(F)c1` [Compound I-59, 2-[3 5-difluoro-4-[4-(1-methyl-4-oxo-5H-pyrazolo[3 4-d]pyrimidin-6-yl)piperazin-1-yl]phenoxy]ethyl (2S)-2-aminopropanoate], the IC50 was found to be 0.0037 µM.
`Cn1ncc2c(=O)[nH]c(N3CCN(C4CC5CCC4C5)CC3)nc21` (centres unmarked) [Compound I-103, 1-methyl-6-(4-norbornan-2-ylpiperazin-1-yl)-5H-pyrazolo[3 4-d]pyrimidin-4-one]: the IC50 worked out at 0.0502 µM.
For the compound “6-[4-(2-fluorophenyl)-1- piperidyl]-1-methyl-5H- pyrazolo[3 4-d]pyrimidin- 4-one [Compound I-88]”, the IC50 came out at 0.0193 µM.
Consider `Cn1ncc2c(=O)[nH]c(N3CCC(C)(c4cc[nH]n4)CC3)nc21` [Compound I-82, 1-methyl-6-[4-methyl-4-(1H-pyrazol-3-yl)-1-piperidyl]-5H-pyrazolo[3 4-d]pyrimidin-4-one], for which the IC50 is 0.0151 µM.

For the origin of these results see patent publication US20130345215A1, “PYRAZOLOPYRIMIDONE AND PYRAZOLOPYRIDONE INHIBITORS OF TANKYRASE” (Genentech, Inc., priority 2012, published 2013).
